This note sets out measurements from US20230340012A1, “NATURAL AND SYNTHETIC COMPOUNDS FOR TREATING CANCER AND OTHER DISEASES” (PACIFIC ARROW LIMITED, priority 2009, published 2023).

In one assay the test system is Swiss3T3 cells. The experiment in a line: MTT cytotoxicity, Swiss3T3 mouse normal fibroblast. The class given is cell-based. Particulars: preliminary results. The procedure:
Swiss3T3 cells are mouse normal fibroblast which were used in this experiment to compare with ES2 (human ovarian cancer) in Tig-R cytotoxicity determination.
MTT Assay. The procedure for MTT assay followed the method described by Carmichael et al. (1987) with modifications. The cells were seeded into a 96-well plate at for 24 hours before drug-treatment. The cells were then exposed to the drugs for 48, 72, or 96 hours. After the drug-treatment, MTT (0.5 mg/mL) was added to cultures and incubated for an hour. The formazan (product of the reduction of tetrazolium by viable cells) formed and was dissolved with DMSO and the O.D. at 490 nm, and was measured by an ELISA reader. The MTT level of the cells before drug-treatment was also measured (T0). The % cell-growth (%G) is calculated as: %G = (TD-T0 / TC-T0) x 100(1), where TC or TD represents O.D. readings of control or drug-treated cells. When T0 > TD, then the cytotoxicity (LC) expressed as % of the control is calculated as: %LC = (TD-T0 / T0) × 100(2).

Assay [1] has as its system DR5 (TNFRSF10B) in ES2 cells. The assay is described as follows: Induction of DR5 in ES2 cells, Western blot. Format: cell-based, human. The method, then:
1). Cells and drug-treatment: ES2 cells (Ovarian cancer cells) were cultured in RPMI1640 medium with 10% FBS, antibiotics (Pen Strep) and L-Glutamine in a 37° C., 5% CO2 incubator. Cells in log-growth phase were treated with Tig-R (10 ug/ml), or DMSO (as control) for 2 days.
2). Total cell protein extraction: Drug-treated cells were collected, pelleted with centrifugation. The cell pellet was extracted with SDS-Sample buffer (containing PMSF and protease inhibitors cocktail). About 0.1 gram cell pellet was extracted in 1 ml of extraction buffer. The cell extract was then incubated in boiling water bath for 6 minutes with occasionally vortexing. The protein extract was immediately frozen in -80° C. before used.
3). SDS gel electrophoresis: 10-20 ug of protein sample was loaded into each lane of a 10% SDS gel. Electrophoresis was conducted with 100 volt constant for 2 hours.
4). Western Blot: Separated proteins from SDS gel were transferred to a nitrocellulose membrane, which was blocked with 5% non-fat dry milk. The membrane was then exposed to 1st antibody (anti-TNFRSF10B) over night, then washed. The membrane was then incubated in 2nd antibody (anti-mouse-AP conjugated) for an hour, then washed. The immuno-bands were developed with BCIP/NBT substrate.
5. Another SDS gel with same protein loading was stained with Coomassie Brilliant Blue (CBB) for protein staining.
A. Cells and drug-treatment: HepG2 cells (liver cancer cells), CAPAN cells, ES2 cells (Ovary cell) were cultured in DMEM medium with 10% FBS, antibiotics (Pen Strep) and L-Glutamine in a 37° C., 5% CO2 incubator. Cells in log-growth phase were treated with Tig-R (10 ug/ml), Tig-S (4 ug/ml) or DMSO (as control) for 2 days.
B. Total cell protein extraction: Drug-treated cells were collected, pelleted with centrifugation. The cell pellet was extracted with SDS-Sample buffer (containing PMSF and protease inhibitors cocktail). About 0.1 gram cell pellet was extracted in 1 ml of extraction buffer. The cell extract was then incubated in boiling water bath for 6 minutes with occasionally vortexing. The protein extract was immediately frozen in -80° C. before used.
C. SDS gel electrophoresis: 10-20 ug of protein sample was loaded into each lane of a 10% SDS gel. Electrophoresis was conducted with 100 volt constant for 2 hours.
D. Western Blot: Separated proteins from SDS gel were transferred to a nitrocellulose membrane, which was blocked with 5% non-fat dry milk. The membrane was then exposed to 1st antibody (anti-TNFRSF10B) over night, then washed. The membrane was then incubated in 2nd antibody (anti-mouse-AP conjugated) for an hour, then washed. The immuno-bands were developed with BCIP/NBT substrate.
E. Another SDS gel with same sample loading was stained with Coomassie Brilliant Blue (CBB) for protein staining.
F. Determination of Western blot band intensity: The band-images of Western blot were captured with a digital camera and the intensity of bands was determined using “Image J” software.

Assay [2] relates to Capan cells (pancreas carcinoma). The assay is described as follows: Agonist activity of anti-DR5 antibody with Tig-R in Capan cells, MTT. Format: cell-based, human. The procedure: Capan cells (pancreas carcinoma) were cultured in RPMI1640 medium supplemented with 10% FBS, antibiotics (Pen Strep) and L-Glutamine. Cells were incubated in a 37° C., 5% CO2 incubator.
Antibody: Antibody against Human TRAIL R2/TNFRSF 10B, (from R&D Systems cat# MAB631-100).
Treatment. Cells in log-growth phase were used. Cells were plated in 96-welled plate with 10 K/well 1-2 days before treatment.
Antibody are serially diluted with medium before adding to culture and incubated for 2 days.
After a treatment for 2 days, the quantity of live cells is then determined with MTT assay*. The percentage of cell growth with drugs was determined by comparing to the no-drug (DMSO) control.

The test system of assay [3] is DR5 (TNFRSF10B) in ES2 cells. The assay is described as follows: Induction of DR5 in ES2 cells, Western blot. Format: cell-based, human. Particulars: experiment 1, column head R 7.5, 2 days.
Setting [4] is: ES2 cells, Tig-R, 2 days, single experiments 2-5.

Where “and” joins values, the source holds several entries; their conditions need not be identical. Equal values may be shown once.

Take “24,28-O-Tigloyl-3β,16α, 21β, 22a, 24β, 28-hexahydroxyolean-12-ene [Tig-R]”: in the assay on Swiss3T3 cells, the “IC50 in SW3T3 cells” value was “above 20 ug/ml”. In addition, the “increase of DR5 over DMSO control cells” value in assay [1] (ES2, Tig-R 10 ug/ml, 2 days (Experiment 46)) stood at 61%. Also, the “increase of DR5” value in assay [1] (ES2 cells, 10 ug/ml, 2 days (Experiment 42)) was “at least 2 folds”. Moreover, the “DR5 band intensity, % of DMSO, Average (%)” value in assay [1] (ES2 cells, Tig-R, 2 days, average of 5 experiments) worked out at 161%. The “DR5 Western blot band intensity (Image J)” value in assay [1] (setting [4]) was 25103 and 17941 and 17133 and 19157; in assay [3], 29902. The “DR5 band intensity, % of DMSO” value in assay [1] (setting [4]) was 185% and 200% and 148% and 113%; in assay [3], 157%. Also, the “combined effect with anti-DR5 antibody” value in assay [2] (Capan, Tig-R 2.5 or 5 ug/ml) is recorded as “synergistic”. Besides, the “% Inhibition Experimental” value amounted to 20% in assay [2] (R 2.5 ug/ml alone) and 29% in assay [2] (R 5 ug/ml alone).
